Four compounds from patent publication US12576087B2, “Aryloxypiperidine pyrazole compounds as indoleamine 2,3-dioxygenase inhibitors” (Merck Sharp & Dohme LLC, priority 2018, dated 2026) can be followed below.

pIC50: −log10 of the molar value.

For this experiment, the target named is IDO1 (Homo sapiens, UniProt P14902). The experiment can be described thus: IDO1 Human Whole Blood Assay. The class given is cell-based. The following applies: WBLD taken as whole blood; read-out: WBLD IC50. As to the method: Compounds to be tested were serially diluted in ten 3-fold steps in DMSO starting from 10 mM. 3 μL of compound dilutions or DMSO alone were then dispensed from the dilution plate into a polypropylene 96-well assay plate containing 97 μL of RPMI medium using an Echo 555 acoustic liquid handler (Labcyte). LPS and IFNγ was prepared in RPMI medium to a 10× of final conc. (1000 ng/mL), final concentration is 100 ng/mL.
Sequence of IDO1 (P14902 whole entry): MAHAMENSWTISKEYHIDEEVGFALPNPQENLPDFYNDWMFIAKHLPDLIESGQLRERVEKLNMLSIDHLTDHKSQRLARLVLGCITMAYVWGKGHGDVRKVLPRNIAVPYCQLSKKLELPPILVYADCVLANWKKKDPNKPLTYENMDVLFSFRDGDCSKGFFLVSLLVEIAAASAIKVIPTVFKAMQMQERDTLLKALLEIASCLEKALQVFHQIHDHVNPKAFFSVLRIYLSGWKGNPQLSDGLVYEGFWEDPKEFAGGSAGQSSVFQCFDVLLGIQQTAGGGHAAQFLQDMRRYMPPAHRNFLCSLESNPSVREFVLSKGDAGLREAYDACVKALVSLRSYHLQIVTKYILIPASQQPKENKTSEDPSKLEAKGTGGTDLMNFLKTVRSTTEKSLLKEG
Human whole blood was drawn in sodium heparin coated tubes from healthy internal donors. 240 μL of blood was transferred to each of the wells of a v-bottom 96 well plate. 30 μL of compound was transferred from intermediate dilution plate, and incubated for 15 min. 30 μL from stimulants was then transferred to blood and mixed thoroughly. Plate was covered with breathable membrane and incubated at 37° C. for overnight (18 h).
On day 2, isotope labeled standard solutions of kunurenine and tryptophan was made in water at 10× concentration and 30 μL was added to the blood at 3 μM final concentration. The assay plates were centrifuged at 300×G for 10 min with no brake to separate plasma from red blood cells. 60 μL of plasma samples was removed without disturbing red blood cells. Plasma was diluted with RPMI in 1:1 ratio and proteins were precipitated out with two volumes of Acetonitrile. The plates were centrifuged at 4000×G for 60 min. 20 μL of supernatant was carefully transferred to a 384 well plate containing 40 μL of 0.1% formic acid in water and analyzed by LC/MS/MS.
LC/MS/MS analyses were performed using Thermo Fisher's LX4-TSQ Quantum Ultra system. This system consists of four Agilent binary high-performance liquid chromatography (HPLC) pumps and a TSQ Quantum Ultra triple quadrupole MS/MS instrument. For each sample, 5 μL were injected onto an Atlantis T3 column (2.1 mm×150 mm, 3 μm particle size) from Waters. The mobile phase gradient pumped at 0.8 mL/min was used to elute the analytes from the column at 25° C. The elution started at 0% B increasing linearly to 25% B at 6.5 min, holding at 25% for 1 min, re-equilibrating to 10 min. Mobile phase A consisted of 0.1% formic acid in water. Mobile phase B consisted of 0.1% of formic acid in acetonitrile. Data were acquired in positive mode using a HESI interface. The operational parameters for the TSQ Quantum Ultra instrument were a spray voltage of 4000 V, capillary temperature of 380° C., vaporizer temperature 400° C., shealth gas 60 arbitrary units, Aux gas 20 arbitrary units, tube lens 85 and collision gas 1.2 mTorr. SRM chromatograms of kynurenine (Q1: 209.2>Q3:94.0) and internal standard (Q1: 215.3>Q3:98.2) were collected for 90 sec. The peak area was integrated by Xcalibur Quan software. The ratios between the kynurenine generated in the reaction and 2D6-Kynurenine spiked-in internal standard were used to generate percentage inhibition and IC50 values. Compounds were titrated and IC50's were calculated by 4 parameter sigmoidal curve fitting formula.
One may read the pIC50 as the IC50 on a negative log10 scale, so that one unit is a factor of ten. With `Cc1ccc(F)cc1OC1CCN(C(=O)Cn2nc(C(=O)N3C[C@@H](C)O[C@@H](C)C3)c3c2CCC3)CC1` [Example 135, 2-[3-(2,6-dimethylmorpholine-4-carbonyl)-5,6-dihydrocyclopenta[c]pyrazol-1(4H)-yl]-1-[4-(5-fluoro-2-methylphenoxy)piperidin-1-yl]ethan-1-one], the pIC50 is 6.95. As for `Cc1cccc(F)c1OC1CCN(C(=O)Cn2nc(C(=O)N3C[C@@H](C)O[C@@H](C)C3)c3c2CCC3)CC1` [Example 138, 2-{3-[(2R,6S)-2,6-dimethylmorpholine-4-carbonyl]-5,6-dihydrocyclopenta[c]pyrazol-1(4H)-yl}-1-[4-(2-fluoro-6-methylphenoxy)piperidin-1-yl]ethan-1-one], the pIC50 is 6.62. On to `Cc1ccccc1NC1CCN(C(=O)Cn2nc(C(=O)N3CCC(F)(CO)CC3)c3c2C[C@H]2C[C@@H]32)CC1` [Example 176, 2-((3bR,4aR)-3-(4-Fluoro-4-(hydroxymethyl)piperidine-1-carbonyl)-3b,4,4a,5-tetrahydro-1H-cyclopropa[3,4]cyclopenta[1,2-c]pyrazol-1-yl)-1-(4-(o-tolylamino)piperidin-1-yl)ethan-1-one], for which the pIC50 is 6.40. In the case of `Cc1ccccc1SC1CCN(C(=O)Cn2nc(C(=O)N3CC[C@@H](O)[C@@H](F)C3)c3c2C[C@H]2C[C@@H]32)CC1` [Example 177, 2-((3bR,4aR)-3-((3S,4R)-3-Fluoro-4-hydroxypiperidine-1-carbonyl)-3b,4,4a,5-tetrahydro-1H-cyclopropa[3,4]cyclopenta[1,2-c]pyrazol-1-yl)-1-(4-(o-tolylthio)piperidin-1-yl)ethanone], the pIC50 is 6.27.
